This is an account of results in patent US10829481B2, “Benzimidazole derivatives as modulators of ROR-gamma” (Vitae Pharmaceuticals, LLC, priority 2016, dated 2020).

The target of assay [1] is recombinant RORγ Ligand Binding Domain (LBD) protein (Homo sapiens (Human), UniProt P51449). The assay can be described thus: Radio-Ligand RORγ Binding Assay (Assay 1). The settings on record: competition with 25-hydroxy [26,27-3H]-cholesterol, SPA. Summed up: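 His-GST-fused RORγ ligand-binding domain (24 nM solution) competed between compounds and tritiated 25-hydroxycholesterol (8.6 nM solution), read by SPA after brief rt incubations in pH 7.4 HEPES/glycerol/detergent buffer. Four-parameter curve fitting gave IC50 at inflection, converted to Ki using radioligand concentration and KD.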
Chain of recombinant RORγ Ligand Binding Domain (LBD) protein (P51449 269-508): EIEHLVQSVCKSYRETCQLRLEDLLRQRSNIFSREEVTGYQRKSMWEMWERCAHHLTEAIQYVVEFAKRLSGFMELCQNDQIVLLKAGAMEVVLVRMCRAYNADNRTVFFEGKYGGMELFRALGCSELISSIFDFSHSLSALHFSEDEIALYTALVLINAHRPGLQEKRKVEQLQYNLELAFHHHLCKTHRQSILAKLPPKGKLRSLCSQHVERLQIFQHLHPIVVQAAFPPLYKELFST

For assay [2], the target named is full-length RORγt in Jurkat cells (Homo sapiens (Human), UniProt P51449). The assay can be described thus: RORγt 5×RORE Assay in Jurkat Cells (Assay 2). The class given is cell-based. Particulars: 5×RORE Nanoluc luciferase reporter. On the technique in general: Reporter assays use an easily measured gene product as a stand-in for the process of interest.
Chain of full-length RORγt in Jurkat cells (P51449 other isoform, or with tags, fused parts or gaps): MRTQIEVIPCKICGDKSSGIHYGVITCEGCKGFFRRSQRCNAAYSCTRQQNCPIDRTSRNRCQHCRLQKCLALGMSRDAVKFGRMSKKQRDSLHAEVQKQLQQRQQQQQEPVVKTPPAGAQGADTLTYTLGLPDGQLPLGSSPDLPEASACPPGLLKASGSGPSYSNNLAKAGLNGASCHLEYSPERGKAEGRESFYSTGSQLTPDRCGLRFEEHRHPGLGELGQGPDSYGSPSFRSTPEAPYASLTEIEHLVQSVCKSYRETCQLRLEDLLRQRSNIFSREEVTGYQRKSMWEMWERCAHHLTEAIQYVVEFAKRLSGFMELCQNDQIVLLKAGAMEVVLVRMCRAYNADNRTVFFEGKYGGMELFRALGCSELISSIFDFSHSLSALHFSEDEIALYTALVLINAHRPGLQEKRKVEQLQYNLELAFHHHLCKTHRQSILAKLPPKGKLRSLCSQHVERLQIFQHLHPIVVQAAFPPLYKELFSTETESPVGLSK

In the case of `CCS(=O)(=O)c1ccc([C@H](CO)NC(=O)c2ccc3c(c2)nc(C(F)(F)F)n3Cc2cccc3c2OC(F)(F)O3)c(F)c1` [I-123, (R)-1-((2,2-difluorobenzo[d][1,3]dioxol-4-yl)methyl)-N-(1-(4-(ethylsulfonyl)-2-fluorophenyl)-2-hydroxyethyl)-2-(trifluoromethyl)-1H-benzo[d]imidazole-5-carboxamide], the Ki in assay [1] was < 0.1 µM. Besides, in assay [2], the IC50 is < 0.1 µM.
As for `COc1cc(Cn2c(C(F)(F)F)nc3cc(C(=O)NCc4ccc(S(=O)(=O)CCO)cc4)ccc32)cc(OC)c1` [I-124, 1-(3,5-dimethoxybenzyl)-N-(4-((2-hydroxyethyl)sulfonyl)benzyl)-2-(trifluoromethyl)-1H-benzo[d]imidazole-5-carboxamide], the Ki in assay [1] is < 0.1 µM. For the same molecule, the IC50 in assay [2] was > 1 µM.
As to `CCc1nc2cc(C(=O)NCc3ccc(S(=O)(=O)CC)cc3)ccc2n1[C@@H](C)c1cccc2c1OC(F)(F)O2` [I-125.1, (S)-1-(1-(2,2-difluorobenzo[d][1,3]dioxol-4-yl)ethyl)-2-ethyl-N-(4-(ethylsulfonyl)benzyl)-1H-benzo[d]imidazole-5-carboxamide], in assay [1], the Ki is < 0.1 µM. Moreover, the IC50 in assay [2] was > 1 µM.
With `CCc1nc2cc(C(=O)NCc3ccc(S(=O)(=O)CC)cc3)ccc2n1[C@H](C)c1cccc2c1OC(F)(F)O2` [I-125.2, (R)-1-(1-(2,2-difluorobenzo[d][1,3]dioxol-4-yl)ethyl)-2-ethyl-N-(4-(ethylsulfonyl)benzyl)-1H-benzo[d]imidazole-5-carboxamide], in assay [1], the Ki is < 0.1 µM. Moreover, the IC50 in assay [2] was < 0.1 µM.
For `CCS(=O)(=O)c1ccc(CNC(=O)c2ccc3c(c2)nc(C(F)(F)F)n3Cc2cccc3c2OC(F)(F)O3)c(O)c1` [I-126, 1-((2,2-difluorobenzo[d][1,3]dioxol-4-yl)methyl)-N-(4-(ethylsulfonyl)-2-hydroxybenzyl)-2-(trifluoromethyl)-1H-benzo[d]imidazole-5-carboxamide], the inhibition constant Ki in assay [1] is < 0.1 µM. Also, the IC50 in assay [2] was < 0.1 µM.
For `COC(=O)CS(=O)(=O)N1CCC(CNC(=O)c2ccc3c(c2)nc(C(F)(F)F)n3Cc2cccc3[nH]ncc23)CC1` [I-127, methyl 2-((4-((1-((1H-indazol-4-yl)methyl)-2-(trifluoromethyl)-1H-benzo[d]imidazole-5-carboxamido)methyl)piperidin-1-yl)sulfonyl)acetate], the Ki in assay [1] is < 0.1 µM. The IC50 in assay [2] is < 0.1 µM.
As to `CCS(=O)(=O)c1ccc(CNC(=O)c2ccc3c(c2)nc(C(F)(F)F)n3Cc2cc(OC)cc(OC)c2)nc1` [I-128, 1-(3,5-dimethoxybenzyl)-N-((5-(ethylsulfonyl)pyridin-2-yl)methyl)-2-(trifluoromethyl)-1H-benzo[d]imidazole-5-carboxamide], in assay [1], the Ki is < 0.1 µM. Moreover, the IC50 in assay [2] was > 1 µM.
With `CCS(=O)(=O)c1ccc([C@H](CO)NC(=O)c2ccc3c(c2)nc(C(F)(F)F)n3Cc2cccc3c2OC(F)(F)O3)nc1` [I-130.1, (R)-1-((2,2-difluorobenzo[d][1,3]dioxol-4-yl)methyl)-N-(1-(5-(ethylsulfonyl)pyridin-2-yl)-2-hydroxyethyl)-2-(trifluoromethyl)-1H-benzo[d]imidazole-5-carboxamide], in assay [1], the Ki is < 0.1 µM. Besides, the IC50 in assay [2] was < 0.1 µM.
With `CCS(=O)(=O)c1ccc([C@@H](CO)NC(=O)c2ccc3c(c2)nc(C(F)(F)F)n3Cc2cccc3c2OC(F)(F)O3)nc1` [I-130.2, (S)-1-((2,2-difluorobenzo[d][1,3]dioxol-4-yl)methyl)-N-(1-(5-(ethylsulfonyl)pyridin-2-yl)-2-hydroxyethyl)-2-(trifluoromethyl)-1H-benzo[d]imidazole-5-carboxamide], the Ki in assay [1] was < 0.1 µM. In assay [2], the IC50 was < 0.1 µM.
As to `CCS(=O)(=O)c1ccc([C@H](CO)NC(=O)c2ccc3c(c2)nc(C(F)F)n3Cc2cccc3c2OC(F)(F)O3)nc1` [I-131.1, (R)-1-((2,2-difluorobenzo[d][1,3]dioxol-4-yl)methyl)-2-(difluoromethyl)-N-(1-(5-(ethylsulfonyl)pyridin-2-yl)-2-hydroxyethyl)-1H-benzo[d]imidazole-5-carboxamide], the Ki in assay [1] was < 0.1 µM. Moreover, the IC50 in assay [2] is < 0.1 µM.
In the case of `CCS(=O)(=O)c1ccc([C@@H](CO)NC(=O)c2ccc3c(c2)nc(C(F)F)n3Cc2cccc3c2OC(F)(F)O3)nc1` [I-131.2, (S)-1-((2,2-difluorobenzo[d][1,3]dioxol-4-yl)methyl)-2-(difluoromethyl)-N-(1-(5-(ethylsulfonyl)pyridin-2-yl)-2-hydroxyethyl)-1H-benzo[d]imidazole-5-carboxamide], the Ki in assay [1] was < 0.1 µM. This molecule also gave an IC50 in assay [2] of 0.1 to 1 µM.
Turning to `CCS(=O)(=O)c1ccc([C@H](CO)NC(=O)c2ccc3c(c2)nc(C2CCC2)n3Cc2cccc3c2OC(F)(F)O3)nc1` [I-132.1, (R)-2-cyclobutyl-1-((2,2-difluorobenzo[d][1,3]dioxol-4-yl)methyl)-N-(1-(5-(ethylsulfonyl)pyridin-2-yl)-2-hydroxyethyl)-1H-benzo[d]imidazole-5-carboxamide], the Ki in assay [1] is < 0.1 µM. For the same molecule, the IC50 in assay [2] was < 0.1 µM.
On to `CCS(=O)(=O)c1ccc([C@@H](CO)NC(=O)c2ccc3c(c2)nc(C2CCC2)n3Cc2cccc3c2OC(F)(F)O3)nc1` [I-132.2, (S)-2-cyclobutyl-1-((2,2-difluorobenzo[d][1,3]dioxol-4-yl)methyl)-N-(1-(5-(ethylsulfonyl)pyridin-2-yl)-2-hydroxyethyl)-1H-benzo[d]imidazole-5-carboxamide], for which the Ki in assay [1] was < 0.1 µM. Besides, in assay [2], the IC50 is < 0.1 µM.
As to `CCS(=O)(=O)c1ccc([C@H](CO)NC(=O)c2ccc3c(c2)nc(C2CC2)n3Cc2cccc3c2OC(F)(F)O3)nc1` [I-133.1, (R)-2-cyclopropyl-1-((2,2-difluorobenzo[d][1,3]dioxol-4-yl)methyl)-N-(1-(5-(ethylsulfonyl)pyridin-2-yl)-2-hydroxyethyl)-1H-benzo[d]imidazole-5-carboxamide], in assay [1], the Ki was < 0.1 µM. Also, the IC50 in assay [2] is < 0.1 µM.
On to `CCS(=O)(=O)c1ccc([C@H](CO)NC(=O)c2ccc3c(c2)nc(C2(F)CC2)n3Cc2cccc3c2OC(F)(F)O3)nc1` [I-134.1, (R)-1-((2,2-difluorobenzo[d][1,3]dioxol-4-yl)methyl)-N-(1-(5-(ethylsulfonyl)pyridin-2-yl)-2-hydroxyethyl)-2-(1-fluorocyclopropyl)-1H-benzo[d]imidazole-5-carboxamide], for which the Ki in assay [1] is < 0.1 µM. Also, the IC50 in assay [2] was < 0.1 µM.
Regarding `CCS(=O)(=O)c1ccc([C@@H](CO)NC(=O)c2ccc3c(c2)nc(C2(F)CC2)n3Cc2cccc3c2OC(F)(F)O3)nc1` [I-134.2, (S)-1-((2,2-difluorobenzo[d][1,3]dioxol-4-yl)methyl)-N-(1-(5-(ethylsulfonyl)pyridin-2-yl)-2-hydroxyethyl)-2-(1-fluorocyclopropyl)-1H-benzo[d]imidazole-5-carboxamide], in assay [1], the Ki was < 0.1 µM. In assay [2], the IC50 is < 0.1 µM.
Consider `CCS(=O)(=O)c1ccc(CNC(=O)c2ccc3c(c2)nc(C(F)(F)F)n3Cc2cccc(OC)c2F)cc1` [I-136, N-(4-(ethylsulfonyl)benzyl)-1-(2-fluoro-3-methoxybenzyl)-2-(trifluoromethyl)-1H-benzo[d]imidazole-5-carboxamide], for which the Ki in assay [1] was < 0.1 µM. Moreover, the concentration for half-maximal inhibition (IC50) in assay [2] was < 0.1 µM.
For `CCS(=O)(=O)c1ccc(CNC(=O)c2ccc3c(c2)nc(C(F)(F)F)n3Cc2cccc3cnn(C)c23)cc1` [I-137, N-(4-(ethylsulfonyl)benzyl)-1-((1-methyl-1H-indazol-7-yl)methyl)-2-(trifluoromethyl)-1H-benzo[d]imidazole-5-carboxamide], the Ki in assay [1] is < 0.1 µM. Also, the IC50 in assay [2] is < 0.1 µM.
Turning to `CCS(=O)(=O)c1ccc(CNC(=O)c2ccc3c(c2)nc(C(F)(F)F)n3Cc2nc(C)cc(C(F)(F)F)n2)cc1` [I-138, N-(4-(ethylsulfonyl)benzyl)-1-((4-methyl-6-(trifluoromethyl)pyrimidin-2-yl)methyl)-2-(trifluoromethyl)-1H-benzo[d]imidazole-5-carboxamide], the Ki in assay [1] was < 0.1 µM. In assay [2], this molecule yielded an IC50 of 0.1 to 1 µM.
For `CCS(=O)(=O)c1ccc(CNC(=O)c2ccc3c(c2)nc(C(F)(F)F)n3Cc2cccc3cn(C)nc23)cc1` [I-139, N-(4-(ethylsulfonyl)benzyl)-1-((2-methyl-2H-indazol-7-yl)methyl)-2-(trifluoromethyl)-1H-benzo[d]imidazole-5-carboxamide], the Ki in assay [1] was < 0.1 µM. Further, in assay [2], the IC50 is < 0.1 µM.
On to `CCS(=O)(=O)c1ccc(CNC(=O)c2ccc3c(c2)nc(C(F)(F)F)n3Cc2cccc3c2cnn3C)cc1` [I-141, N-(4-(ethylsulfonyl)benzyl)-1-((1-methyl-1H-indazol-4-yl)methyl)-2-(trifluoromethyl)-1H-benzo[d]imidazole-5-carboxamide], for which the inhibition constant (Ki) in assay [1] is > 1 µM. This molecule also gave an IC50 in assay [2] of 0.1 to 1 µM.
With `CCS(=O)(=O)c1ccc(CNC(=O)c2ccc3c(c2)nc(C(F)(F)F)n3Cc2cccc3nn(C)cc23)cc1` [I-143, N-(4-(ethylsulfonyl)benzyl)-1-((2-methyl-2H-indazol-4-yl)methyl)-2-(trifluoromethyl)-1H-benzo[d]imidazole-5-carboxamide], the Ki in assay [1] was < 0.1 µM. This molecule also gave an IC50 in assay [2] of 0.1 to 1 µM.
Turning to `CCS(=O)(=O)c1ccc(CNC(=O)c2ccc3c(c2)nc(C(F)(F)F)n3Cc2cccc3ocnc23)cc1` [I-147, 1-(benzo[d]oxazol-4-ylmethyl)-N-(4-(ethylsulfonyl)benzyl)-2-(trifluoromethyl)-1H-benzo[d]imidazole-5-carboxamide], the inhibition constant (Ki) in assay [1] was < 0.1 µM. The molecule further displayed an IC50 in assay [2] of 0.1 to 1 µM.

Broadly, the Ki is a measure of affinity in units of concentration, obtained from inhibition or displacement. In general, IC50 refers to the concentration that gives 50% inhibition. Low values mean inhibition by little substance, high ones a need for much substance.
